Assay results reported in US20090226368A1, “Androgen-Receptor (AR) Ligands for Use in the Treatment and Diagnosis of AR-Related Pathologies” (priority 2005, published 2009).

How the values were obtained:
human AR recombinant = biological target: T1, human AR recombinant (Homo sapiens, UniProt P10275); assay: Relative Binding Affinity (RBA) assay, competitive binding with [3H]R1881; details: against [3H]R1881; R1881 standard = 100 by definition
T1 construct: purchased Pan-Vera
T1 sequence (P10275 1-920): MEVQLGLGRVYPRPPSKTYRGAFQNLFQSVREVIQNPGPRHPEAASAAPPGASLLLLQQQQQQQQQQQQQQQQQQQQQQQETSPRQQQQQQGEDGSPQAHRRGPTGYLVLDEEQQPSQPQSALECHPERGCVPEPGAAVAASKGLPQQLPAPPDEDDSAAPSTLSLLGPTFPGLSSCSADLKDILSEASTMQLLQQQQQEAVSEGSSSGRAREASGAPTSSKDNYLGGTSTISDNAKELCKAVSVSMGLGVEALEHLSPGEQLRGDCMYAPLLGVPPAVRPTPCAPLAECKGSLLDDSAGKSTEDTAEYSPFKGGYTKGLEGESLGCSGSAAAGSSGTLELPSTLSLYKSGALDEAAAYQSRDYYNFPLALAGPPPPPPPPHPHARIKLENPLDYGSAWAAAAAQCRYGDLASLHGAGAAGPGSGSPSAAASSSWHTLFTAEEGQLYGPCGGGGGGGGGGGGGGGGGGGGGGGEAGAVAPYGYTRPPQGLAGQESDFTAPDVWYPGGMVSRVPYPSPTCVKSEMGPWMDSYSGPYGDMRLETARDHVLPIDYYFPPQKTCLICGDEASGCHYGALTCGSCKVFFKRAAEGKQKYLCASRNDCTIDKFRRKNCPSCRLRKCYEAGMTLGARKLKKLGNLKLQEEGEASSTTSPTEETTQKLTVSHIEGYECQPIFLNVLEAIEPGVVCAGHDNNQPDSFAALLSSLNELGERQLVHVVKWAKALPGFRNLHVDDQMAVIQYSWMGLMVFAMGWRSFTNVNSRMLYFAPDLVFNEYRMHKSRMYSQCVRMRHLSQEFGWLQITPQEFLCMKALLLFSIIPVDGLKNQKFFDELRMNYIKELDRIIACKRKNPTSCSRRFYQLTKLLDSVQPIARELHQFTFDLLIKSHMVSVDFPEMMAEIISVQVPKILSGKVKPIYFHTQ
Description: In order to measure the affinity of the compounds to the A, the compounds of the general Formula I, referred herein also as the AR ligands were tested in RBA (Relative Binding Affinity) assay, which is a competitive binding assay with ^3H—R1881, a high affinity AR binding ligand.
RBA of androgens were measured against [^3H]R1881 in human AR recombinant (Pan-Vera). RBA values of the standards are 100 by definition (Brandes S. J., et al., Molecular Pharmacology; 1987; 32:391-400).

[1] = Blood stability test, incubation in blood at 37° C.; format: in vitro ADME, human
Description: Blood was taken in EDTA tubes in order to prevent coagulation. 550 μl of ^18F-labeled (R)-Compound 3 was added to 1 ml of blood, and put in a rotating incubator at 37° C. The incubation times were 0, 30, 60 and 90 minutes. After the incubation, the blood was centrifuged for 5 minutes at 3000 rpm. The plasma was centrifuged again for 5 minutes at 10600 g and the pellet was discarded. 400 μl of the resulting supernatant was added to 800 μl of 30% THF/CH3CN, vortexed for 30 seconds and centrifuged for 5 minute at 10600 g. The supernatant was filtered through 0.45 μm filter and injected to HPLC column. The column was eluted with a mixture of acetate buffer (pH 3.8) and acetonitrile (35:65) at flow rate of 3 ml/min. The HPLC eluent was monitored sequentially for UV absorbance at 254 nm and radioactivity. Each sample was done in duplicate.
The same procedure was done with the ^11C-labeled (R)-Compound 3 after incubation of 0, 15, 30 and 45 minutes.
Blood stability, which was measured by phosphor-imager, was done in the same procedure. The filtered samples were loaded on reverse phase TLC plates and exposed to the phosphor-imager plates for 1 hour.
In the case of (R)-Compound 2, the incubation in the human blood sample was 0, 15, 30 and 45 minutes. The percent of extraction of the compound was around 40%.

LNCap cell lines = assay: Antagonist test, PSA secretion measured by ELISA; format: cell-based; details: 48 and 72 hours; for PSA secretion in comparison to the control: given alone, testosterone 100 nM, compound 0.2, 0.5 and 1 μM
Description: PSA (Prostate Specific Antigen) is a secreted protein which is regulated by AR and is clinically used to detect prostate cancer in humans. LNCap cell lines were seeded in 24 wells (10^5 cells/well) in 10% FCS RPMI supplemented with sodium-pyruvate, pen/strep, L-glutamine, testosterone and insulin and grown for 24 hours. Then, the cells were washed 3 times with cold PBS and incubated in 10% FCS red-phenol-free RPMI. Testosterone (100 nM), ^18F-labeled (R)-Compound 3 (0.2, 0.5 and 1 μM) or both were added to the wells. Ethanol, which was used as the solvent of the testosterone and ^18F-labeled (R)-Compound 3, was added to the control wells in the same concentration.
At 48 and 72 hours, a sample of the medium was taken and the PSA levels were measured by ELISA.

[2] = PET-CT scan of distribution, bladder activity; format: in vivo; details: normal Lewis male rats, 40 minutes post injection
Description: In some clinically used radio-tracers, such of FDG, activity is observed in the bladder, and mask the prostate. […] The distribution of the compound was scanned by human PET-CT. Counter dye was injected to the animal 10 minutes prior to the injection of the labeled compound and the exact location of the bladder was detected by CT. In accordance with the biodistribution experiment, activity was measured in the metabolic organs.

[3] = In-vivo blood stability in nude mice; details: blood sampled after 0, 15, 30 and 35 minutes, phosphor-imagers
Description: In-vivo blood stability experiments were performed for the ^11C-labeled (R)-Compound 3. The compound was injected into nude mice. Blood was sampled from the mice after 0, 15, 30 and 35 minutes. The labeled compound was extracted and evaluated using phosphor-imagers.

[4] = Biodistribution in normal Lewis male rats, gamma-counter; format: in vivo; details: tail vein
Description: The distribution of ^11C-labeled (R)-Compound 3 was measured in normal Lewis male rats which have been kept under SPF conditions. The labeled compound was injected through the tail vein of the rat. The rats were sacrificed 30, 60 and 90 minutes post injection, and prostate, blood, liver, muscle and kidney were removed and the activity in each organ was measured by gamma-counter (Tables 2A-D).

[5] = blood, 37° C., incubation 0, 30, 60 and 90 minutes, HPLC
[6] = 30 minutes post injection, Table 2A
[7] = 60 minutes post injection, Table 2B
[8] = 60 minutes post injection, Table 2B (Rats 1, 2)
[9] = 60 minutes post injection, Table 2C
[10] = 60 minutes post injection, Table 2C (Rats 3, 4)
[11] = 90 minutes post injection, Table 2D

## CC(C)(O)C(=O)Nc1ccc(F)c(C(F)(F)F)c1 [(R)-F-2, N-(4-fluoro-3-(trifluoromethyl)phenyl)-2-hydroxy-2-methylpropanamide]
Human AR recombinant
  RBA (%): 0.027%

## CN(C)C[C@@](C)(O)C(=O)Nc1ccc([18F])c(C(F)(F)F)c1 [^18F-labeled (R)-Compound 3]
[1]; [5]
  metabolites in blood: no metabolites were evident
  percent of extraction: 39-43%
LNCap cell lines
  PSA secretion in comparison to the control: reduced the PSA secretion
LNCap cell lines; together with testosterone 100 nM, 0.2, 0.5 and 1 μM, P<0.01
  testosterone-induced secretion of PSA: significantly reduced the testosterone-induced secretion of PSA

## C[C@]12CC[C@H]3[C@@H](CCC4=CC(=O)CC[C@@]43C)[C@@H]1CC[C@@H]2O [Testosterone, reference compound]
LNCap cell lines
  PSA secretion in comparison to the control: increased PSA secretion

## CN(C)C[C@@](C)(O)C(=O)Nc1ccc(F)c(C(F)(F)F)c1 [(R)-Compound 3, (R)-3-Dimethyl-N-(4-fluoro-3-(trifluoromethyl)phenyl)-2-hydroxy-2-methyl-propanamide]
Human AR recombinant
  RBA (%): 0.029%

## C[C@](O)(CBr)C(=O)Nc1ccc(F)c(C(F)(F)F)c1 [(R)-F-1, (R)-3-Bromo-N-(4-fluoro-3-(trifluoromethyl)phenyl)-2-hydroxy-2-methyl-propanamide]
Human AR recombinant
  RBA (%): 0.057%

## CN([11CH3])C[C@@](C)(O)C(=O)Nc1ccc(F)c(C(F)(F)F)c1 [^11C-labeled (R)-Compound 3]
[2]
  activity in the bladder: No activity was observed in the bladder
[3]
  metabolites in blood in vivo: No metabolites were evident
[4]; [6]
  Biodistribution Blood, Av.: 0.76 % id/g
  Biodistribution Blood, Rat 1: 0.89 % id/g
  Biodistribution Blood, Rat 2: 0.63 % id/g
  Biodistribution Kidney, Av.: 12.43 % id/g
  Biodistribution Kidney, Rat 1: 15.57 % id/g
  Biodistribution Kidney, Rat 2: 9.29 % id/g
  Biodistribution Liver, Av.: 3.96 % id/g
  Biodistribution Liver, Rat 1: 4.26 % id/g
  Biodistribution Liver, Rat 2: 3.67 % id/g
  Biodistribution Muscle, Av.: 1.14 % id/g
  Biodistribution Muscle, Rat 1: 1.07 % id/g
  Biodistribution Muscle, Rat 2: 1.21 % id/g
  Biodistribution Prostate, Av.: 1.47 % id/g
  Biodistribution Prostate, Rat 1: 1.67 % id/g
  Biodistribution Prostate, Rat 2: 1.27 % id/g
[4]; [7]
  Biodistribution Blood, Rat 1: 0.54 % id/g
  Biodistribution Blood, Rat 2: 0.41 % id/g
  Biodistribution Kidney, Rat 1: 5.03 % id/g
  Biodistribution Kidney, Rat 2: 3.54 % id/g
  Biodistribution Liver, Rat 1: 8.79 % id/g
  Biodistribution Liver, Rat 2: 4.61 % id/g
  Biodistribution Muscle, Rat 1: 1.02 % id/g
  Biodistribution Muscle, Rat 2: 0.68 % id/g
  Biodistribution Prostate, Rat 1: 2.32 % id/g
  Biodistribution Prostate, Rat 2: 1.05 % id/g
[4]; [8]
  Biodistribution Blood, Av.: 0.48 % id/g
  Biodistribution Kidney, Av.: 4.29 % id/g
  Biodistribution Liver, Av.: 6.70 % id/g
  Biodistribution Muscle, Av.: 0.85 % id/g
  Biodistribution Prostate, Av.: 1.69 % id/g
[4]; [9]
  Biodistribution Blood, Rat 3: 0.28 % id/g
  Biodistribution Blood, Rat 4: 0.35 % id/g
  Biodistribution Kidney, Rat 3: 2.48 % id/g
  Biodistribution Kidney, Rat 4: 2.54 % id/g
  Biodistribution Liver, Rat 3: 5.30 % id/g
  Biodistribution Liver, Rat 4: 5.14 % id/g
  Biodistribution Muscle, Rat 3: 0.55 % id/g
  Biodistribution Muscle, Rat 4: 0.56 % id/g
  Biodistribution Prostate, Rat 3: 1.13 % id/g
  Biodistribution Prostate, Rat 4: 1.18 % id/g
[4]; [10]
  Biodistribution Blood, Av.: 0.32 % id/g
  Biodistribution Kidney, Av.: 2.51 % id/g
  Biodistribution Liver, Av.: 5.22 % id/g
  Biodistribution Muscle, Av.: 0.55 % id/g
  Biodistribution Prostate, Av.: 1.16 % id/g
[4]; [11]
  Biodistribution Blood, Av.: 0.36 % id/g
  Biodistribution Blood, Rat 1: 0.3 % id/g
  Biodistribution Blood, Rat 2: 0.42 % id/g
  Biodistribution Kidney, Av.: 2.46 % id/g
  Biodistribution Kidney, Rat 1: 2.24 % id/g
  Biodistribution Kidney, Rat 2: 2.68 % id/g
  Biodistribution Liver, Av.: 5.35 % id/g
  Biodistribution Liver, Rat 1: 5.16 % id/g
  Biodistribution Liver, Rat 2: 5.55 % id/g
  Biodistribution Muscle, Av.: 0.53 % id/g
  Biodistribution Muscle, Rat 1: 0.48 % id/g
  Biodistribution Muscle, Rat 2: 0.57 % id/g
  Biodistribution Prostate, Av.: 1.17 % id/g
  Biodistribution Prostate, Rat 1: 1.22 % id/g
  Biodistribution Prostate, Rat 2: 1.12 % id/g

## C[C@]1(O)CC[C@H]2[C@@H]3CCC4=CC(=O)CCC4=C3C=C[C@@]21C [Compound R1881]
Human AR recombinant
  RBA (%): 100%

## CC(C)(O)C(=O)Nc1ccc([N+](=O)[O-])c(C(F)(F)F)c1 [Hydroxyflutamide]
Human AR recombinant
  RBA (%): 0.027%

## CN(C)C[C@@](C)(O)C(=O)Nc1ccc([N+](=O)[O-])c(C(F)(F)F)c1 [(R)-Compound 2, (R)-3-Dimethyl-2-hydroxy-2-methyl-N-(4-nitro-3-trifluoromethyl-phenyl)-propionamide]
Human AR recombinant
  RBA (%): 0.036%
[1]; human blood sample, incubation 0, 15, 30 and 45 minutes
  percent of extraction: around 40%
[1]; human blood sample, incubation 0, 15, 30 and 45 minutes, phosphor-imager
  formation of metabolites: no metabolites were evident

## CN(C)C[C@@](C)(O)C(=O)Nc1ccc(C#N)c(C(F)(F)F)c1 [(R)-Compound 1, (R)-3-Dimethyl-N-(4-cyano-3-trifluoromethyl-phenyl)-2-hydroxy-2-methyl-propionamide]
Human AR recombinant
  RBA (%): 0.030%
